# In patent US5219884A, “Immunosuppressant” (Taito Co., Ltd., priority 1990, dated 1993):
# Like-named read-outs stand apart in the source and are kept apart here.
# Key:
# [1] = tested on: anti-sheep red blood cell antibody production in BALB/c mice; assay: suppression of mouse anti-sheep red blood cell antibody production (PFC); assay type: in vivo
# Method: Males 5- to 7-week-old BALB/c mice were immunized with sheep red blood cells (SRBC), and the spleen was resected three or four days later. By counting the plaque forming cells (PFC), suppressive effect on the production of the anti-sheep red blood cell antibody was examined as follows.
# (§1) BALB/c mice were immunized with SRBC (1×10^7 cells/mouse, intravenous administration), and ISP-I in the Example 1 was administered intraperitoneally for 4 consecutive days from the day of immunization. Four days after immunization (the next day of the final administration), the spleen was resected and the anti-sheep red blood cell antibody-producing cells were determined by the direct plaque method. At the same time the body weight of the mouse, wet weight of the thymus and the spleen, and numbers of spleen cells were also determined.
# as §1, with “(5×10^7” for “(1×10^7”, “the compound” for “ISP-I”, “5” for “1”, “resected,” for “resected”, “time,” for “time”
# [2] = tested on: IL2 production in PHA-stimulated mouse spleen cells; assay: suppression of IL2 production in PHA-stimulated mouse spleen cells; assay type: cell-based; conditions: for inhibition at 0.01 µg/mL / inhibition at 0.1 µg/mL / inhibition at 1 µg/mL / inhibition at 10 µg/mL: Mus musculus, 24 h, read-out: Suppression
# Method: Culture of PHA-stimulated mouse spleen cells was carried out as follows: PHA (1/100 dilution) was added to the BALB/c mouse spleen cells suspension prepared in the same way as in Experimental Example 4. The cell suspension (1 ml) and 1 ml of the test substance were added to 24-well multidishes, and cultured at 37° C. in an atmosphere of 5% carbon dioxide for 24 hours. After termination of the culture, the supernatant was collected and used as the supernatant of PHA-stimulated cultures.
# The IL2 activity in the supernatants of mouse allogenic MLC and the supernatants of PHA-stimulated mouse spleen cells culture was assayed as follows: IL2-dependent mouse cell line CTLL-2 cells were suspended in the RPMI1640 culture medium supplemented with 30% FCS to the concentration of 10^5 cells/ml, and 100 μl of the suspension was added to each well of 96-well microculture plates in which 100 μl of the supernatant of the MLC described above had been placed. After culturing at 37° C. in an atmosphere of 5% carbon dioxide for 20 hours, 0.5 μCi/well of ^3 H-thymidine was added, and incubated for 4 hours under the same conditions. After termination of the culture, the cells were harvested by a cell harvester, and the radioactivity incorporated into the cells was measured by a liquid scintillation counter. IL2 activity was expressed in U/ml as the titer at various concentrations at which the ^3 H-thymidine incorporation was 50% of the maximum.
# [3] = tested on: alloreactive cytotoxic T cells (EL4 target cells); assay: suppression of induction of alloreactive cytotoxic T cells in mouse allogenic MLC (51Cr release); assay type: cell-based
# Method: The spleen cells suspension, 0.5 ml, (2×10^7 cells/ml) of BALB/c mouse (H-2^d) prepared in the same way as in Experimental Example 1, 0.5 ml of a suspension of mitomycin C-treated C57BL/6 mouse (H-2^b) spleen cells (2×10^7 cell/ml) and 1.0 ml of the test substance were added to 24-well multidishes, and cultured at 37° C. in an atmosphere of 5% carbon dioxide for 6 days.
# After termination of the culture, the cells were harvested by centrifugation, and the concentration of the cell suspension was adjusted to 5×10^6 -6.25×10^5 cells/ml by using the RPMI1640 culture medium supplemented with 10% FCS, and used as the effector cell suspension.
# The target cells used were leukemia cells EL4 from the syngenic (H-2^b) C57BL/b mouse as used for preparation of the stimulator cells. By incubating 10^6 EL4 cells in the presence of 100 μCi of Na2^51 CrO4 (1 mCi/ml) at 37° C. for 1 hour to incorporate ^51 Cr into the cytoplasm. The cell were washed, adjusted to the concentration of 10^4 cells/ml and used as the target cell suspension.
# For the assay of the cytotoxic activity, 0.1 ml of the effector cell suspension and 0.1 ml of the target cell suspension were added to 96-well flat-bottomed plates, and cultured at 37° C. for 4 hours. The amount of ^51 Cr released into the supernatant was determined and the cytotoxic activity was calculated by the following formula. [formula]
# [4] = tested on: mouse spleen cells stimulated with pokeweed mitogen (PWM); assay: suppression of blastogenic response of mouse spleen cells by PWM; assay type: cell-based; conditions: for inhibition at 0.1 µg/mL / inhibition at 0.01 µg/mL / inhibition at 1 µg/mL: Mus musculus, 76 h; for inhibition at 0.1 µg/mL: read-out: Suppression
# Method: The effect on the mouse blastogenic response of mouse spleen cells stimulated with phytohemagglutinin (PHA) or with pokeweed mitogen (PWM) was examined as follows:
# The spleen was resected from 5- to 8-week-old male […] BALB/c mice, and single cell suspension of spleen cells was prepared by using the RPMI1640 culture medium supplemented with 5% FCS. After hemolytic treatment, the concentration of the suspension was adjusted to 5×10^6 cells/ml by using the RPMI1640 culture medium supplemented with 10^-4 M 2-mercaptoethanol and 20% FCS, to which PHA or PWM was added. One hundred μl of the cell suspension was added to each well of 96-well microculture plates to which 100 μl per well of the test solution had been added (5×10^5 mouse spleen cells per well). After culturing at 37° C. in an atmosphere of 5% carbon dioxide for 72 hours, 0.5 μCi/well of ^3 H-thymidine was added and cultured under the same conditions for further 4 hours. After termination of the culture, the cells were harvested by a cell harvester, and the radioactivity incorporated into the cells was measured by a liquid scintillation counter, which was used as the index of blastogenic response of mouse spleen cells.
# [5] = Experiment 1, 0.3 mg/kg/day i.p., 4 days
# [6] = Experiment 1, 1 mg/kg/day i.p., 4 days
# [7] = Experiment 1, 3 mg/kg/day i.p., 4 days
# [8] = 0.1 μg/ml, effector:target 25:1
# [9] = 0.1 μg/ml, effector:target 50:1
# [10] = 0.1 μg/ml, effector:target 100:1
# [11] = Experiment 2, 10 mg/kg/day i.p., 4 days
compound,measurement,setting,value
CCCCCCC(=O)CCCCCC/C=C/CC(O)C(O)C(N)(CO)C(=O)O (centres unmarked) [Example 1],Number of PFC per 1 × 10^7 cell,[1]; [5],1.4 ± 0.4 × 10^3 /1 × 10^7 cell
same,Number of PFC per spleen,[1]; [5],0.9 ± 0.3 × 10^4 /spleen
same,Number of PFC per 1 × 10^7 cell,[1]; [6],0.5 ± 0.2 × 10^3 /1 × 10^7 cell
same,Number of PFC per spleen,[1]; [6],0.3 ± 0.1 × 10^4 /spleen
same,Number of PFC per 1 × 10^7 cell,[1]; [7],0.2 ± 0.1 × 10^3 /1 × 10^7 cell
same,Number of PFC per spleen,[1]; [7],0.1 ± 0.0 × 10^4 /spleen
same,IL2 activity,[2]; 0.01 μg/ml,6.5 U/ml
same,IL2 activity,[2]; 0.1 μg/ml,2.5 U/ml
same,IL2 activity,[2]; 1 μg/ml,1.1 U/ml
same,IL2 activity,[2]; 10 μg/ml,< 1 U/ml
same,inhibition at 0.01 µg/mL,[2],46.3%
same,inhibition at 0.1 µg/mL,[2],79.3%
same,inhibition at 1 µg/mL,[2],90.9%
same,inhibition at 10 µg/mL,[2],> 92%
same,Amount of 51Cr release,"[3]; 0.01 μg/ml, effector:target 25:1",816 cpm
same,Amount of 51Cr release,"[3]; 0.01 μg/ml, effector:target 50:1",783 cpm
same,Amount of 51Cr release,"[3]; 0.01 μg/ml, effector:target 100:1",808 cpm
same,Amount of 51Cr release,[3]; [8],764 cpm
same,Amount of 51Cr release,[3]; [9],773 cpm
same,Amount of 51Cr release,[3]; [10],771 cpm
same,inhibition at 0.1 µg/mL,[4],73.2%
same,inhibition at 0.01 µg/mL,"[4]; PWM (1/100), 0.01 μg/ml",61%
same,inhibition at 1 µg/mL,"[4]; PWM (1/100), 1 μg/ml",84.5%
same,3H-thymidine uptake,"[4]; PWM (1/100), 0.01 μg/ml",13499 cpm
same,3H-thymidine uptake,"[4]; PWM (1/100), 0.1 μg/ml",9895 cpm
same,3H-thymidine uptake,"[4]; PWM (1/100), 1 μg/ml",6529 cpm
CCCCCCC(=O)CCCCCC/C=C/CC1OC(=O)C(N)(CO)C1O (centres unmarked) [Example 4],IL2 activity,[2]; 0.01 μg/ml,4.9 U/ml
same,IL2 activity,[2]; 0.1 μg/ml,2.6 U/ml
same,IL2 activity,[2]; 1 μg/ml,< 1 U/ml
same,IL2 activity,[2]; 10 μg/ml,< 1 U/ml
same,inhibition at 0.01 µg/mL,[2]; 0.01 μg/ml,59.5%
same,inhibition at 0.1 µg/mL,[2]; 0.1 μg/ml,78.5%
same,inhibition at 1 µg/mL,[2]; 1 μg/ml,> 92%
same,inhibition at 10 µg/mL,[2]; 10 μg/ml,> 92%
same,Amount of 51Cr release,[3]; [8],767 cpm
same,Cytotoxic activity,[3]; [8],0%
same,Amount of 51Cr release,[3]; [9],780 cpm
same,Cytotoxic activity,[3]; [9],0%
same,Amount of 51Cr release,[3]; [10],761 cpm
same,Cytotoxic activity,[3]; [10],0%
same,inhibition at 0.01 µg/mL,"[4]; PWM (1/100), 0.01 μg/ml",41.4%
same,inhibition at 0.1 µg/mL,"[4]; PWM (1/100), 0.1 μg/ml",75.1%
same,inhibition at 1 µg/mL,"[4]; PWM (1/100), 1 μg/ml",77.1%
same,3H-thymidine uptake,"[4]; PWM (1/100), 0.01 μg/ml",19335 cpm
same,3H-thymidine uptake,"[4]; PWM (1/100), 0.1 μg/ml",9325 cpm
same,3H-thymidine uptake,"[4]; PWM (1/100), 1 μg/ml",8712 cpm
CCCCCCC(=O)CCCCCCCCCC(O)C(O)C(N)(CO)C(=O)O (centres unmarked) [Example 5],Number of PFC per 1 × 10^7 cell,[1]; [11],5.6 ± 1.7 × 10^3 /1 × 10^7 cell
same,Number of PFC per spleen,[1]; [11],12.9 ± 3.9 × 10^4 /spleen
CCCCCCC(O)CCCCCC/C=C/CC1OC(=O)C(N)(CO)C1O (centres unmarked) [Example 8],Number of PFC per 1 × 10^7 cell,"[1]; Table 12B, 10 mg/kg/day",6.7 ± 1.2 × 10^3 /1 × 10^7 cell
same,Number of PFC per spleen,"[1]; Table 12B, 10 mg/kg/day",8.5 ± 1.9 × 10^4 /spleen
